Test results from patent US7476662B2, “Substituted tetracyclic imidazole derivatives, processes for their preparation, pharmaceutical compositions comprising them and their use as a medicine” (Janssen Pharmaceutica N.V., priority 2001, dated 2009).

Legend:
rabbits = assay: Cold lesion-induced rise of ICP in rabbits; assay type: in vivo, rabbit; conditions: rabbits one day after cryo-lesion
Procedure: Cryo-lesions were induced in adult rabbits to obtain a pathological ICP that is caused by tissue oedema. A 8 mm stainless steel rod was placed at predetermined coordinates on the exposed skull of deeply anaesthetised rabbits and cooled for […] with liquid nitrogen. One day later the animals were re-anaesthetised and ICP and blood pressure continuously recorded as described for the rat. After a stabilisation period of 15 min, Compound 1 was infused for 10 min at a dose of 2 mg/kg/min. Solvent (preclinical formulation containing 10% HP-β-CD, pH 4) was given for 10 min at a rate of […].

traumatized rats = assay: Repeated application on elevated ICP in traumatized rats; assay type: in vivo, rat; conditions: i.v. 1 mg/kg/min during 10 min, repeated, FIG. 3
Procedure: Compound 1 was given 2 times with intermittent periods of 20 min at a i.v. dose of 1 mg/kg/min during 10 min, starting a first time 20 min after induction of severe head injury.
Mannitol was given i.v. in the same time windows as Compound 1 at a dose of 0.125 g/kg/min. The control animals received the solvent (containing 10% HP-β-CD, pH 4) only.
This effect is amplified after termination of each, infusion period.

non-traumatised rats = assay: ICP, MABP and CPP in anaesthetised non-traumatised rats; assay type: in vivo, rat; conditions: i.v. 0.5 mg/kg/min during 10 minutes, followed by 0.1 mg/kg/min during 50 min
Procedure: The effect of Compound 2, Compound 1 and Racemate (comp. 1 and comp. 2) on ICP, MABP and CPP was tested in anaesthetised non-traumatised rats. The compounds were administered i.v. and the same dose was given as in traumatized rats (0.5 mg/kg/min during 10 minutes, followed by 0.1 mg/kg/min during 50 min).

rat brain = assay: Near-infrared spectroscopy (NIRS) of the rat brain: brain hemoglobin concentration and oxygenation after moderate head injury; assay type: in vivo; conditions: 24 h after moderate head injury; i.v. 0.5 mg/kg.min 10 min then 0.1 mg/kg.min 45 min
Description: Near-infrared spectroscopy (NIRS) of the rat brain ‘in vivo’ allows to quantify non-invasively saturation of brain haemoglobin with oxygen (HbSat) and total brain haemoglobin concentration ([HbTot]). The latter is a measure for cerebral blood volume (CBV). Changes in the redox state of the mitochondrial enzyme cytochrome oxidase (CytOx), an indicator for tissue oxygenation, can also be monitored.
HbSat is not affected by compound 1 and the racemate (Comp. 1 and Comp. 2).

Sprague-Dawley rats [1] = assay: Dose response of a 10 min infusion in the rat CHI model; assay type: in vivo
Description: A clinically relevant rat model for traumatic brain injury was used to test the compounds according to the invention. This model mimics several clinical features of traumatic brain injury, such as increased ICP, decreased cerebral perfusion pressure, morphologic alterations including diffuse axonal injury, neuronal necrosis and contusion, impairment of autoregulation of cerebral blood flow and reduction of brain oxygenation and was applied for screening drugs with ICP-lowering effects. Trauma was induced in intubated, isoflurane anesthetized (1.5% isoflurane in a mixture of 30% O2 and 70% N2O) Sprague-Dawley rats (380-400 g) stereotaxically positioned on a table mounted on 4 springs. A 400 g steel cylinder, protected with a 9 mm diameter silicon disc, was dropped on the unprotected skull from a height of either 70 cm or 50 cm (respectively ‘severe’ and ‘moderate’ head injury). The impact area was centered between bregma and lamda. ICP was recorded using a Codman microsensor probe inserted in the parietal cortex. In both severe and moderate head injuries the ICP increased immediately after trauma and remained elevated for several days. The severe head injury mode was used for the evaluation of pharmacological effects immediately after trauma (screening procedure). When survival and recovery from anesthesia was envisaged, the moderate head injury mode was applied. In pharmacological studies, animals with a pathological ICP between 12.5 and 35 mm Hg were included. The changes in ICP, mean arterial blood pressure (MABP) and cerebral perfusion pressure CPP (=[…]) were expressed as percentage of the initial value at onset of the treatment. Screening procedure: On a weekly base, 4 treated groups of 3 rats were compared with 3 saline treated animals. Since conventional statistical methods require a larger amount of animals, a sequential procedure was used. Sequential methods operate in different stages. […] Given the biological relevant level of activity that must be detected, the expected fraction of false positive and negative results was known and fixed. […]

Rhesus monkeys = assay: ICP in anaesthetised non-traumatised Rhesus monkeys; assay type: in vivo, Rhesus monkey; conditions: i.v. infusion 2.5 and 5 mg/kg over 2.5 and 5 min (n=2/condition)
Procedure: The effect of Compound 1 on ICP was tested in a limited number of anaesthetised non-traumatised Rhesus monkeys with a i.v. infusion of a dose of 2.5 and 5 mg/kg over 2.5 and 5 min respectively (n=2/condition).

Sprague-Dawley rats [2] = assay: Changes in relevant physiological variables during treatment after severe CHI in rats; assay type: in vivo, rat; conditions: median average change over entire treatment period, % change of initial value; 0.5 mg/kg/min 10 min then 0.1 mg/kg/min 50 min, started 20 min after severe CHI; n = 10
Description: A clinically relevant rat model for traumatic brain injury was used to test the compounds according to the invention. This model mimics several clinical features of traumatic brain injury, such as increased ICP, decreased cerebral perfusion pressure, morphologic alterations including diffuse axonal injury, neuronal necrosis and contusion, impairment of autoregulation of cerebral blood flow and reduction of brain oxygenation and was applied for screening drugs with ICP-lowering effects. Trauma was induced in intubated, isoflurane anesthetized (1.5% isoflurane in a mixture of 30% O2 and 70% N2O) Sprague-Dawley rats (380-400 g) stereotaxically positioned on a table mounted on 4 springs. A 400 g steel cylinder, protected with a 9 mm diameter silicon disc, was dropped on the unprotected skull from a height of either 70 cm or 50 cm (respectively ‘severe’ and ‘moderate’ head injury). The impact area was centered between bregma and lamda. ICP was recorded using a Codman microsensor probe inserted in the parietal cortex. In both severe and moderate head injuries the ICP increased immediately after trauma and remained elevated for several days. The severe head injury mode was used for the evaluation of pharmacological effects immediately after trauma (screening procedure). When survival and recovery from anesthesia was envisaged, the moderate head injury mode was applied. In pharmacological studies, animals with a pathological ICP between 12.5 and 35 mm Hg were included. The changes in ICP, mean arterial blood pressure (MABP) and cerebral perfusion pressure CPP (=[…]) were expressed as percentage of the initial value at onset of the treatment. Screening procedure: On a weekly base, 4 treated groups of 3 rats were compared with 3 saline treated animals. Since conventional statistical methods require a larger amount of animals, a sequential procedure was used. Sequential methods operate in different stages. At each stage, a group of animals was selected as homogeneous as possible. Animals were randomly allocated to either drugs or saline. The procedure allowed to make the decision of rejecting the drug, accepting the drug as active or to continue with a new group of animals in a next stage. Given the biological relevant level of activity that must be detected, the expected fraction of false positive and negative results was known and fixed. A sequential two-sample grouped rank test was used. […] Despite the variability in the individual data, the procedure consistently accepted reference treatments such as mannitol as active, while controls were rejected.
Treatment was started at 20 min after severe head injury and involved administering a dose of 0.5 mg/kg/min during 10 minutes, followed by 0.1 mg/kg/min during 50 min.

Compound: Cc1nc2n(C)c3ccccc3n2c(=O)c1CCN1CCC(C2c3ccccc3CCn3c2nc2ccccc23)CC1Cc1ccccc1 (single isomer, unassigned) [Compound 1, (B)[(2α,4β)(A)]3-[2-(4-(11,12-dihydro-6H-benzimidazo [2,1-b][3]benzazepin-6-yl)-2-(phenylmethyl)-1-piperidinyl]ethyl]-2,10-dimethyl-pyrimido[1,2-a]benzimidazol-4(10H)-one (E)-2-butenedioate (2:3) hydrate (1:1)]
- blood pressure during infusion (rabbits; 2 mg/kg/min for 10 min): drops
- effect on ICP during infusion (rabbits; 2 mg/kg/min for 10 min, FIG. 4): no immediate decrease in ICP
- blood pressure when drug infusion is terminated (rabbits; after 2 mg/kg/min for 10 min): comes back to the initial value
- effect on ICP when drug infusion is terminated (rabbits; after 2 mg/kg/min for 10 min, persists during entire recording period): significant ICP reduction
- effect on ICP during infusion (traumatized rats; first 20 min after severe head injury): rapid reduction of ICP
- effect on ICP after termination of each infusion period (traumatized rats): amplified
- effect on blood pressure (traumatized rats): drops during Compound 1 treatment but is restored again after this episode
- effect on ICP, MABP and CPP (non-traumatised rats): comparable with those obtained in the traumatized animals
- effect on saturation of brain haemoglobin with oxygen (HbSat) (rat brain): not affected
- effect on total brain haemoglobin concentration [HbTot] (rat brain): do not have a significant effect
- dose starting at which reduction in ICP is statistically significantly larger than in the solvent-treated group (Sprague-Dawley rats [1]; 10 min infusion): ≥ 1 mg/kg/min
- effect on ICP during treatment (Sprague-Dawley rats [1]; 10 min infusion at 0.125, 0.25, 0.5, 1 and 2 mg/kg/min, FIG. 1): sustained dose-dependent decrease of ICP
- effect on ICP in the 10 min period following the infusion (Sprague-Dawley rats [1]; after 10 min infusion at 0.125-2 mg/kg/min, FIG. 2): highly significant dose-dependent effect on ICP remains present
- pattern of ICP and blood pressure changes during and after infusion (Rhesus monkeys): resembles the pattern of changes observed in cryo-lesioned rabbits
- CPP (%) (Sprague-Dawley rats [2]): −1.9%
- ETCO2 (%) (Sprague-Dawley rats [2]): 2.2%
- Heart rate(%) (Sprague-Dawley rats [2]): −4.1%
- ICP (%) (Sprague-Dawley rats [2]): −15.4%
- MABP (%) (Sprague-Dawley rats [2]): −3.6%
- Resp. rate(%) (Sprague-Dawley rats [2]): 5.3%
